Measurements taken from paper PMC12749252 (Nature Communications, 2025).
pIC50: −log10 of the molar value.

Tests used:
GCN2 = GCN2 (Homo sapiens, UniProt Q9P2K8); experiment: Eurofins KinaseProfiler in vitro; assay type: biochemical
WEE1 = WEE1 (Homo sapiens, UniProt P30291); experiment: NanoBRET target engagement in HEK293 cells; assay type: cell-based
WEE1, sequence (P30291 whole entry): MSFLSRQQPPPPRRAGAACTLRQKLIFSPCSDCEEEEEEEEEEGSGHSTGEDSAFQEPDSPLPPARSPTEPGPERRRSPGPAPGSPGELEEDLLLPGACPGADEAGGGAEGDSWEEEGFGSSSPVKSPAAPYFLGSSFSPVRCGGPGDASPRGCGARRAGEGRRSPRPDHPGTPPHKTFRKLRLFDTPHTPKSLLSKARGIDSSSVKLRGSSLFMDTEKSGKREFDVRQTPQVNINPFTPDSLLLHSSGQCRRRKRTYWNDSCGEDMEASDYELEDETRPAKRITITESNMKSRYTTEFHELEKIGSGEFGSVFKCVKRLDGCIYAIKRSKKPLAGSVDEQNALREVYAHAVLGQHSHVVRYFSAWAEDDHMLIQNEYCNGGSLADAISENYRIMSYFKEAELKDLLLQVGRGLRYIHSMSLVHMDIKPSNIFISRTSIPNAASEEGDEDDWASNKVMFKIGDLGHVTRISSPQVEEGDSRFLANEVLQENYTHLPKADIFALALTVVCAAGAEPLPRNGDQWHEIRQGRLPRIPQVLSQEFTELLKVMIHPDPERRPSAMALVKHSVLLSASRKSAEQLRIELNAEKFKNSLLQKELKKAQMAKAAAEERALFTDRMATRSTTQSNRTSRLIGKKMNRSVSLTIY

GCN2, sequence (Q9P2K8 whole entry): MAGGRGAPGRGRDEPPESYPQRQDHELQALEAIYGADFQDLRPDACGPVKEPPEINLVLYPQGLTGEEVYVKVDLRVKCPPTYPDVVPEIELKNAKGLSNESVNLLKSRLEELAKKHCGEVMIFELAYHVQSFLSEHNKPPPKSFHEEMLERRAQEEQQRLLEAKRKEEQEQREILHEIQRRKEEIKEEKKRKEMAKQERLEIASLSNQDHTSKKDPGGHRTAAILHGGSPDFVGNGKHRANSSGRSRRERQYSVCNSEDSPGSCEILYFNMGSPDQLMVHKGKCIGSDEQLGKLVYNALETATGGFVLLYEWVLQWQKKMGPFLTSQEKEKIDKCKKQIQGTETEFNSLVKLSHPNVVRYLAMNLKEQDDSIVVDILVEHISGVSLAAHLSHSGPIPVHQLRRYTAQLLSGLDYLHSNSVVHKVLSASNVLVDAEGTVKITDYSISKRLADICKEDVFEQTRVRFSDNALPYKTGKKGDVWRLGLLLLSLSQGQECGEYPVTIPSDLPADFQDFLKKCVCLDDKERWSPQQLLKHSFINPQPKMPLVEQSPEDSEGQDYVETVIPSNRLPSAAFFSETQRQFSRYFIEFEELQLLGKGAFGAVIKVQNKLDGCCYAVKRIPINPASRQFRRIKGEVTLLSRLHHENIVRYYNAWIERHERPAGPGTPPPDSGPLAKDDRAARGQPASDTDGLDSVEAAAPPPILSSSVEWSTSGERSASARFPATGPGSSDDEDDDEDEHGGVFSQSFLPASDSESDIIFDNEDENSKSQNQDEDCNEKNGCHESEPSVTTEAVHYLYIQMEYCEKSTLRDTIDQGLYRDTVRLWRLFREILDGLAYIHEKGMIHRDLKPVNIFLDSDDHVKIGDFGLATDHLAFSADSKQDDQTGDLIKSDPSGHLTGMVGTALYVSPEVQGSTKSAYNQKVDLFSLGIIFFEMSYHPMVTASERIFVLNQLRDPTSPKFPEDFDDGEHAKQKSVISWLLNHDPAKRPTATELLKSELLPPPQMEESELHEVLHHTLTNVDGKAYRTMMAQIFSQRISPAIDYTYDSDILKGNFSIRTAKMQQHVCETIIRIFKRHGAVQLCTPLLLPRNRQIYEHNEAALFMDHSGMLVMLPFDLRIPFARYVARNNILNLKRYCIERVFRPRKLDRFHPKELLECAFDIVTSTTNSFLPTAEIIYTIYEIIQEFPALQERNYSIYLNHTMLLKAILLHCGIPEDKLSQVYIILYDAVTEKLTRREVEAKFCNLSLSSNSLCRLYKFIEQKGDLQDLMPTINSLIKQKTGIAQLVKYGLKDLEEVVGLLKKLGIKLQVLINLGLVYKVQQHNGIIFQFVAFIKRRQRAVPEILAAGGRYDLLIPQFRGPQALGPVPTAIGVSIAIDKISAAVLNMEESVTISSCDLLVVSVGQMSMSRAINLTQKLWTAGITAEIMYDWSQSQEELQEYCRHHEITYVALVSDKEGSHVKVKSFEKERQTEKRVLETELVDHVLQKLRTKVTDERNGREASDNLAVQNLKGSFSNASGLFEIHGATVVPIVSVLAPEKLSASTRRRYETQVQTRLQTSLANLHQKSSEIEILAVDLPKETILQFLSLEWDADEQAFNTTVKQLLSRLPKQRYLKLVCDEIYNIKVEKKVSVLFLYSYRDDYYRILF

| pIC50 (GCN2) | Compound | NanoBRET target engagement in HEK293 cells (only at high doses) (WEE1) |
| --- | --- | --- |
| 6.85 | C=CCn1c(=O)c2cnc(Nc3ccc(N4CCN(C)CC4)cc3)nc2n1-c1cccc(C(C)(C)O)n1 [AZD1775] | – |
| – | Cc1cc2c(C(N)=O)c(N)n(-c3c(C)ccc(O)c3C)c2nc1C [RP-6306] | while PKMYT1i only interacted at high doses (Fig. 5c) |
